{
  "source": "the supplement of paper PMC10307832",
  "experiment_in_all_cases": "relative viability (nuclei count vs DMSO), 5 days (fraction); higher = more cells survive",
  "key": {"Etoposide + Olaparib": {"compound": "COc1cc([C@@H]2c3cc4c(cc3[C@@H](O[C@@H]3O[C@@H]5CO[C@@H](C)O[C@H]5[C@H](O)[C@H]3O)[C@H]3COC(=O)[C@H]23)OCO4)cc(OC)c1O [Etoposide] + O=C(c1cc(Cc2n[nH]c(=O)c3ccccc23)ccc1F)N1CCN(C(=O)C2CC2)CC1 [Olaparib] (partner 8 µM)", "procedure,_shortened": "(§1)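 Cells from lung cancer lines were seeded into 1536-well plates and, one day later, dosed by pin tool. Treatments were either a single drug or a fixed dose of an anchor drug with five library-drug doses (not always all listed) in √10 steps. After 5 days, nuclei were stained in a one-step fixation (final 0.05% Triton X-100, 1% formaldehyde, 1 ug/ml Hoechst) and counted on 4× images, and relative viability is the treated-to-vehicle nuclei ratio, as the median of duplicate plates.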"}, "Etoposide + Tozasertib": {"compound": "COc1cc([C@@H]2c3cc4c(cc3[C@@H](O[C@@H]3O[C@@H]5CO[C@@H](C)O[C@H]5[C@H](O)[C@H]3O)[C@H]3COC(=O)[C@H]23)OCO4)cc(OC)c1O [Etoposide] + Cc1cc(Nc2cc(N3CCN(C)CC3)nc(Sc3ccc(NC(=O)C4CC4)cc3)n2)n[nH]1 [Tozasertib] (partner 0.1 µM)", "procedure,_shortened": "as §1"}, "Etoposide + Alpelisib": {"compound": "COc1cc([C@@H]2c3cc4c(cc3[C@@H](O[C@@H]3O[C@@H]5CO[C@@H](C)O[C@H]5[C@H](O)[C@H]3O)[C@H]3COC(=O)[C@H]23)OCO4)cc(OC)c1O [Etoposide] + Cc1nc(NC(=O)N2CCC[C@H]2C(N)=O)sc1-c1ccnc(C(C)(C)C(F)(F)F)c1 [Alpelisib] (partner 2 µM)", "procedure,_shortened": "as §1"}, "Bleomycin + Lapatinib": {"compound": "CC1=C(N=C(N=C1N)[C@H](CC(=O)N)NC[C@@H](C(=O)N)N)C(=O)N[C@@H]([C@H](C2=CN=CN2)OC3C(C(C(C(O3)CO)O)O)OC4C(C(C(C(O4)CO)O)OC(=O)N)O)C(=O)N[C@H](C)[C@H]([C@H](C)C(=O)N[C@@H]([C@@H](C)O)C(=O)NCCC5=NC(=CS5)C6=NC(=CS6)C(=O)NCCC[S+](C)C)O [Bleomycin] + CS(=O)(=O)CCNCc1ccc(-c2ccc3ncnc(Nc4ccc(OCc5cccc(F)c5)c(Cl)c4)c3c2)o1 [Lapatinib] (partner 2 µM)", "settings": "main component drawn", "procedure,_shortened": "as §1"}},
  "data": [
    {"cell line": "BEN", "values": [
      {"measurement": "relative viability", "setting": "Etoposide + Olaparib; first compound 0.01 µM", "result": 0.938},
      {"measurement": "relative viability", "setting": "Etoposide + Olaparib; first compound 0.03162 µM", "result": 1.01},
      {"measurement": "relative viability", "setting": "Etoposide + Olaparib; first compound 0.3162 µM", "result": 0.936},
      {"measurement": "relative viability", "setting": "Etoposide + Olaparib; first compound 1 µM", "result": 0.672},
      {"measurement": "relative viability", "setting": "Etoposide + Tozasertib; first compound 0.01 µM", "result": 0.463},
      {"measurement": "relative viability", "setting": "Etoposide + Tozasertib; first compound 0.03162 µM", "result": 0.503},
      {"measurement": "relative viability", "setting": "Etoposide + Tozasertib; first compound 0.3162 µM", "result": 0.483},
      {"measurement": "relative viability", "setting": "Etoposide + Tozasertib; first compound 1 µM", "result": 0.481},
      {"measurement": "relative viability", "setting": "Etoposide + Alpelisib; first compound 0.01 µM", "result": 0.841},
      {"measurement": "relative viability", "setting": "Etoposide + Alpelisib; first compound 0.03162 µM", "result": 1.08},
      {"measurement": "relative viability", "setting": "Etoposide + Alpelisib; first compound 0.3162 µM", "result": 0.87},
      {"measurement": "relative viability", "setting": "Etoposide + Alpelisib; first compound 1 µM", "result": 0.852},
      {"measurement": "relative viability", "setting": "Bleomycin + Lapatinib; first compound 0.01 µM", "result": 0.72},
      {"measurement": "relative viability", "setting": "Bleomycin + Lapatinib; first compound 0.03162 µM", "result": 0.709},
      {"measurement": "relative viability", "setting": "Bleomycin + Lapatinib; first compound 0.1 µM", "result": 0.913},
      {"measurement": "relative viability", "setting": "Bleomycin + Lapatinib; first compound 0.3162 µM", "result": 0.571},
      {"measurement": "relative viability", "setting": "Bleomycin + Lapatinib; first compound 1 µM", "result": 0.542}
    ]},
    {"cell line": "CAL-12T", "values": [
      {"measurement": "relative viability", "setting": "Etoposide + Olaparib; first compound 0.01 µM", "result": 0.716},
      {"measurement": "relative viability", "setting": "Etoposide + Olaparib; first compound 0.03162 µM", "result": 0.623},
      {"measurement": "relative viability", "setting": "Etoposide + Olaparib; first compound 0.1 µM", "result": 0.693},
      {"measurement": "relative viability", "setting": "Etoposide + Olaparib; first compound 0.3162 µM", "result": 0.368},
      {"measurement": "relative viability", "setting": "Etoposide + Olaparib; first compound 1 µM", "result": 0.213},
      {"measurement": "relative viability", "setting": "Etoposide + Tozasertib; first compound 0.01 µM", "result": 0.256},
      {"measurement": "relative viability", "setting": "Etoposide + Tozasertib; first compound 0.03162 µM", "result": 0.297},
      {"measurement": "relative viability", "setting": "Etoposide + Tozasertib; first compound 0.1 µM", "result": 0.408},
      {"measurement": "relative viability", "setting": "Etoposide + Tozasertib; first compound 0.3162 µM", "result": 0.264},
      {"measurement": "relative viability", "setting": "Etoposide + Tozasertib; first compound 1 µM", "result": 0.28},
      {"measurement": "relative viability", "setting": "Etoposide + Alpelisib; first compound 0.01 µM", "result": 1.15},
      {"measurement": "relative viability", "setting": "Etoposide + Alpelisib; first compound 0.03162 µM", "result": 1.2},
      {"measurement": "relative viability", "setting": "Etoposide + Alpelisib; first compound 0.1 µM", "result": 1.32},
      {"measurement": "relative viability", "setting": "Etoposide + Alpelisib; first compound 0.3162 µM", "result": 0.799},
      {"measurement": "relative viability", "setting": "Etoposide + Alpelisib; first compound 1 µM", "result": 0.306},
      {"measurement": "relative viability", "setting": "Bleomycin + Lapatinib; first compound 0.03162 µM", "result": 0.557},
      {"measurement": "relative viability", "setting": "Bleomycin + Lapatinib; first compound 0.1 µM", "result": 0.454},
      {"measurement": "relative viability", "setting": "Bleomycin + Lapatinib; first compound 0.3162 µM", "result": 0.218},
      {"measurement": "relative viability", "setting": "Bleomycin + Lapatinib; first compound 1 µM", "result": 0.21}
    ]},
    {"cell line": "COR-L23", "values": [
      {"measurement": "relative viability", "setting": "Etoposide + Olaparib; first compound 0.01 µM", "result": 0.368},
      {"measurement": "relative viability", "setting": "Etoposide + Olaparib; first compound 0.03162 µM", "result": 0.294},
      {"measurement": "relative viability", "setting": "Etoposide + Olaparib; first compound 0.1 µM", "result": 0.375},
      {"measurement": "relative viability", "setting": "Etoposide + Olaparib; first compound 0.3162 µM", "result": 0.223},
      {"measurement": "relative viability", "setting": "Etoposide + Olaparib; first compound 1 µM", "result": 0.169},
      {"measurement": "relative viability", "setting": "Etoposide + Tozasertib; first compound 0.01 µM", "result": 0.189},
      {"measurement": "relative viability", "setting": "Etoposide + Tozasertib; first compound 0.03162 µM", "result": 0.236},
      {"measurement": "relative viability", "setting": "Etoposide + Tozasertib; first compound 0.1 µM", "result": 0.262},
      {"measurement": "relative viability", "setting": "Etoposide + Tozasertib; first compound 0.3162 µM", "result": 0.145},
      {"measurement": "relative viability", "setting": "Etoposide + Tozasertib; first compound 1 µM", "result": 0.109},
      {"measurement": "relative viability", "setting": "Etoposide + Alpelisib; first compound 0.01 µM", "result": 0.543},
      {"measurement": "relative viability", "setting": "Etoposide + Alpelisib; first compound 0.03162 µM", "result": 0.891},
      {"measurement": "relative viability", "setting": "Etoposide + Alpelisib; first compound 0.1 µM", "result": 0.771},
      {"measurement": "relative viability", "setting": "Etoposide + Alpelisib; first compound 0.3162 µM", "result": 0.461},
      {"measurement": "relative viability", "setting": "Etoposide + Alpelisib; first compound 1 µM", "result": 0.219},
      {"measurement": "relative viability", "setting": "Bleomycin + Lapatinib; first compound 0.01 µM", "result": 0.707},
      {"measurement": "relative viability", "setting": "Bleomycin + Lapatinib; first compound 0.03162 µM", "result": 0.776},
      {"measurement": "relative viability", "setting": "Bleomycin + Lapatinib; first compound 0.1 µM", "result": 0.294},
      {"measurement": "relative viability", "setting": "Bleomycin + Lapatinib; first compound 0.3162 µM", "result": 0.14},
      {"measurement": "relative viability", "setting": "Bleomycin + Lapatinib; first compound 1 µM", "result": 0.115}
    ]},
    {"cell line": "COR-L 105", "values": [
      {"measurement": "relative viability", "setting": "Etoposide + Olaparib; first compound 0.01 µM", "result": 0.719},
      {"measurement": "relative viability", "setting": "Etoposide + Olaparib; first compound 0.03162 µM", "result": 0.859},
      {"measurement": "relative viability", "setting": "Etoposide + Olaparib; first compound 0.1 µM", "result": 0.701},
      {"measurement": "relative viability", "setting": "Etoposide + Olaparib; first compound 0.3162 µM", "result": 0.572},
      {"measurement": "relative viability", "setting": "Etoposide + Olaparib; first compound 1 µM", "result": 0.654},
      {"measurement": "relative viability", "setting": "Etoposide + Tozasertib; first compound 0.01 µM", "result": 0.385},
      {"measurement": "relative viability", "setting": "Etoposide + Tozasertib; first compound 0.03162 µM", "result": 0.345},
      {"measurement": "relative viability", "setting": "Etoposide + Tozasertib; first compound 0.1 µM", "result": 0.291},
      {"measurement": "relative viability", "setting": "Etoposide + Tozasertib; first compound 0.3162 µM", "result": 0.353},
      {"measurement": "relative viability", "setting": "Etoposide + Tozasertib; first compound 1 µM", "result": 0.366},
      {"measurement": "relative viability", "setting": "Etoposide + Alpelisib; first compound 0.01 µM", "result": 1.08},
      {"measurement": "relative viability", "setting": "Etoposide + Alpelisib; first compound 0.03162 µM", "result": 1.06},
      {"measurement": "relative viability", "setting": "Etoposide + Alpelisib; first compound 0.1 µM", "result": 1.12},
      {"measurement": "relative viability", "setting": "Etoposide + Alpelisib; first compound 0.3162 µM", "result": 0.807},
      {"measurement": "relative viability", "setting": "Etoposide + Alpelisib; first compound 1 µM", "result": 0.56},
      {"measurement": "relative viability", "setting": "Bleomycin + Lapatinib; first compound 0.01 µM", "result": 0.279},
      {"measurement": "relative viability", "setting": "Bleomycin + Lapatinib; first compound 0.03162 µM", "result": 0.379},
      {"measurement": "relative viability", "setting": "Bleomycin + Lapatinib; first compound 0.1 µM", "result": 0.345},
      {"measurement": "relative viability", "setting": "Bleomycin + Lapatinib; first compound 0.3162 µM", "result": 0.268},
      {"measurement": "relative viability", "setting": "Bleomycin + Lapatinib; first compound 1 µM", "result": 0.294}
    ]}
  ]
}
